In US20240425464A1, “Substituted Monohydrazides as Potent Antifungal Agents” (University of Kentucky Research Foundation, priority 2023, published 2024):
≈ marks a conversion by molar mass, not a printed value. Read-outs that look alike come from different tables or passages of the source.

Tests used:
Test in all cases: MIC determination by in vitro antifungal assay
Type in all cases: cell-based
[1] = test system: Candida glabrata ATCC 2001 (H); conditions: ATCC 2001 in text
Method: (§1) 10 mg/mL stock solutions of compounds 1a-9j were prepared in dimethyl sulfoxide (DMSO) and were stored at −20° C. in the dark. The antifungal agent amphotericin B (AmB) was purchased from VWR (Radnor PA, USA). AmB was dissolved in DMSO at a final concentration of 5 mg/mL and was stored at −20° C., protected from light. Candida albicans American Type Culture Collection (ATCC) 10231 (strain A), C. albicans ATCC 64124 (B), and C. albicans ATCC MYA-2876 (C) were obtained from Utah State University. C. albicans ATCC 90819 (D), C. albicans ATCC MYA-2310 (E), C. albicans ATCC MYA-1237 (F), C. albicans ATCC MYA-1003 (G), Candida glabrata ATCC 2001 (H), Candida krusei ATCC 6258 (I), Candida parapsilosis ATCC 22019 (J), Cryptococcus neoformans ATCC MYA-895 (M), Aspergillus terreus ATCC MYA-3633 (N), and Aspergillus flavus ATCC MYA-3631 (0) were obtained from the American Type Culture Collection (ATCC; Manassas, VA, USA). Aspergillus nidulans ATCC 38163 (P) was obtained from University of Kentucky. Clinically derived Aspergillus fumigatus NRRL 163 (Q), A. fumigatus NRRL 5109 (R), and A. fumigatus NRRL 6113 (S) were obtained from Northern Regional Research Laboratory (NRRL). Candida auris 384 (K), C. auris 390 (L), and fungal strains 381-400 (including 10 C. auris (AR Bank #381-390), 3 Candida duobushaemulonii (AR Bank #391, AR Bank #392, and AR Bank #394), 2 Candida haemulonii (AR Bank #393 and AR Bank #395), 1 Kodameae ohmeri (AR Bank #396), 1 C. krusei (AR Bank #397), 1 Candida lusitaniae (AR Bank #398), and 2 Saccharomyces cerevisiae strains (AR Bank #399 and AR Bank #400)) were part of a larger fungal library from the AR Bank maintained by the Centers for Disease Control and Prevention (CDC; Atlanta, GA, USA). Filamentous fungi and yeasts were cultivated at 35° C. in RPMI 1640 medium (with L-glutamine, without sodium bicarbonate, Sigma-Aldrich, St. Louis, MO) buffered to a pH of 7.0 with 0.165 M morpholinepropanesulfonic acid (MOPS) buffer (Sigma-Aldrich). For cytotoxicity assays, HepG2 and the mouse macrophage cell line J774A.1 were obtained from University of Kentucky. The human embryonic kidney cell line, HEK-293, was bought from the ATCC. Mammalian cells were grown in Dulbecco's Modified Eagle's Medium (DMEM) (from VWR) with 10% fetal bovine serum (FBS) (from VWR) and 1% Pen/Strep (from ATCC). Cell lines were cultured at 37° C. with 5% CO2 and passaged by trypsinization with 0.05% trypsin: 0.53 mM EDTA (from Sigma-Aldrich).
(§2) The MIC values of compounds 1a-9j against yeast cells (strains A-P and 381-400) were determined in 96-well plates as described in the CLSI documents M27-A3 and M38-A2 with minor modifications.^2 A single colony of freshly prepared yeast cells was used to inoculate 5 mL of yeast extract peptone dextrose (YPD) broth prior to incubation overnight with shaking at 200 rpm at 35° C. From the actively growing yeast culture, 100 µL were then transferred to 900 μL of RPMI 1640 medium and re-adjusted to achieve OD600 of 0.12 (˜1×10^6 CFU/mL). The cell suspension was further diluted to achieve 1:100 in RPMI 1640 medium. 100 μL of cells were added to the wells of a 96-well microtiter plates that contained 100 µL of the compound solution to obtain concentrations of 0.06-31.3 μg/mL of compounds 1a-9j or AmB prior to incubation for 48 h at 35° C. […]

[2] = test system: Candida krusei ATCC 6258 (I)
Method: as §1, §2

[3] = test system: Candida parapsilosis ATCC 22019 (J)
Method: as §1, §2

[4] = test system: Aspergillus flavus ATCC MYA-3631 (O); conditions: strain O = A. flavus ATCC MYA-3631
Method: as §1
(§3) The MIC values of compounds 1a-9j against yeast cells (strains A-P and 381-400) were determined in 96-well plates as described in the CLSI documents M27-A3 and M38-A2 with minor modifications.^2 A single colony of freshly prepared yeast cells was used to inoculate 5 mL of yeast extract peptone dextrose (YPD) broth prior to incubation overnight with shaking at 200 rpm at 35° C. From the actively growing yeast culture, 100 µL were then transferred to 900 μL of RPMI 1640 medium and re-adjusted to achieve OD600 of 0.12 (˜1×10^6 CFU/mL). The cell suspension was further diluted to achieve 1:100 in RPMI 1640 medium. 100 μL of cells were added to the wells of a 96-well microtiter plates that contained 100 µL of the compound solution to obtain concentrations of 0.06-31.3 μg/mL of compounds 1a-9j or AmB prior to incubation for 48 h at 35° C.
(§4) Finally, the activity of these monohydrazides was explored against […] non-Candida strains: Cryptococcus neoformans ATCC MYA-895 (M), Aspergillus terreus ATCC MYA-3633 (N), Aspergillus flavus ATCC MYA-3631 (O), Aspergillus nidulans ATCC 38163 (P), Aspergillus fumigatus NRRL 163 (Q), A. fumigatus NRRL 5109 (R), and A. fumigatus NRRL 6113 (S) (Tables 1A and 1B). The double dilution method was used with concentrations ranging from 0.06 to 31.3 j·tg mL^−1 for monohydrazides 1a-9j, and the commercially available positive antifungal control amphotericin B (AmB).

[5] = test system: Aspergillus nidulans ATCC 38163 (P)
Method: as §1, §3, §4

[6] = test system: Aspergillus terreus ATCC MYA-3633 (N); conditions: strain N = A. terreus ATCC MYA-3633
Method: as §1, §3, §4

[7] = test system: Cryptococcus neoformans ATCC MYA-895 (M)
Method: as §1, §3, §4

[8] = Nakaseomyces glabratus, ATCC 2001 / ATCC 2004, strain H = C. glabrata ATCC 2004 (footnote), read-out: MIC
[9] = Pichia kudriavzevii, ATCC6258, strain I = C. krusei ATCC 6258, read-out: MIC
[10] = Lodderomyces parapsilosis, ATCC22019, strain J = C. parapsilosis ATCC 22019, read-out: MIC
[11] = Aspergillus flavus, read-out: MIC
[12] = Aspergillus nidulans, ATCC38163, strain P = A. nidulans ATCC 38163, read-out: MIC
[13] = Aspergillus terreus, read-out: MIC
[14] = Cryptococcus neoformans, strain M = C. neoformans ATCC MYA-895, read-out: MIC
[15] = strain H = C. glabrata ATCC 2004 (footnote)
[16] = strain J = C. parapsilosis ATCC 22019
[17] = strain P = A. nidulans ATCC 38163
[18] = strain M = C. neoformans ATCC MYA-895

Row | Compound | MIC [1, 8] [µg/mL] | MIC [2, 9] [µg/mL] | MIC [3, 10] [µg/mL] | MIC [4, 11] [µg/mL] | MIC [5, 12] [µg/mL] | MIC [6, 13] [µg/mL] | MIC [7, 14] [µg/mL] | MIC [1, 15] [μg/mL^−1] | MIC ([2]; strain I = C. krusei ATCC 6258) [μg/mL^−1] | MIC [3, 16] [μg/mL^−1] | MIC [4] [μg/mL^−1] | MIC [5, 17] [μg/mL^−1] | MIC [6] [μg/mL^−1] | MIC [7, 18] [μg/mL^−1] | MIC ([2]; against strain I) [j·tg mL^−1] | MIC ([7]; against strain M) [j·tg mL^−1]
1 | O=C(NNc1ccc(F)cc1F)c1ccc(Br)cn1 [Compound 4g] | 7.8 (≈ 23.8 µM) | 0.49 (≈ 1.49 µM) | 3.9 (≈ 11.9 µM) | > 31.3 | 3.9 (≈ 11.9 µM) | 3.9 (≈ 11.9 µM) | 1.95 (≈ 5.94 µM) | – | – | – | – | – | – | – | – | –
2 | O=C(NNc1cccc(F)c1)c1ccccn1 [Compound 2a] | – | – | – | – | – | – | – | 1.95 | 0.24 | 1.95 | 7.8 | 3.9 | 1.95 | 0.12 | – | –
3 | O=C(NNc1ccc(F)cc1)c1ccccn1 [Compound 2d] | 1.95 (≈ 8.43 µM) | 0.12 (≈ 0.519 µM) | 1.95 (≈ 8.43 µM) | 31.3 (≈ 135 µM) | 0.49 (≈ 2.12 µM) | 1.95 (≈ 8.43 µM) | 0.24 (≈ 1.04 µM) | – | – | – | – | – | – | – | – | –
4 | O=C(NNc1ccc(F)cc1F)c1ccc(F)cn1 [Compound 3g] | 31.3 (≈ 117 µM) | 0.98 (≈ 3.67 µM) | 31.3 (≈ 117 µM) | 15.6 (≈ 58.4 µM) | 0.98 (≈ 3.67 µM) | 3.9 (≈ 14.6 µM) | 0.98 (≈ 3.67 µM) | – | – | – | – | – | – | – | – | –
5 | COc1ccc(NNC(=O)c2ccc(Br)cn2)cc1 [Compound 4f] | 1.95 (≈ 6.05 µM) | 0.98 (≈ 3.04 µM) | 3.9 (≈ 12.1 µM) | > 31.3 | 15.6 (≈ 48.4 µM) | 7.8 (≈ 24.2 µM) | 1.95 (≈ 6.05 µM) | – | – | – | – | – | – | – | – | –
6 | O=C(NNc1ccc(F)cc1F)c1cnccn1 [Compound 9g] | 0.98 (≈ 3.92 µM) | 0.24 (≈ 0.959 µM) | 3.9 (≈ 15.6 µM) | 7.8 (≈ 31.2 µM) | 0.49 (≈ 1.96 µM) | 0.98 (≈ 3.92 µM) | 0.24 (≈ 0.959 µM) | – | – | – | – | – | – | – | – | –
7 | O=C(NNc1cccc(F)c1)c1ccc(F)cc1F [Compound 1a] | – | – | – | – | – | – | – | 7.8 | 1.95 | 3.9 | >31.3 | 3.9 | 3.9 | 1.95 | – | –
8 | COc1ccc(NNC(=O)c2cccc(F)n2)cc1 [Compound 5f] | 0.98 (≈ 3.75 µM) | 0.49 (≈ 1.88 µM) | 7.8 (≈ 29.9 µM) | > 31.3 | 1.95 (≈ 7.46 µM) | 15.6 (≈ 59.7 µM) | 0.24 (≈ 0.919 µM) | – | – | – | – | – | – | – | – | –
9 | COc1cccc(NNC(=O)c2ccccn2)c1 [Compound 2c] | – | – | – | – | – | – | – | 13.6 | 0.49 | 3.9 | >31.3 | 1.95 | 3.9 | 0.24 | – | –
10 | O=C(NNc1cc(F)ccc1F)c1ccccn1 [Compound 2h] | 3.9 (≈ 15.6 µM) | 0.24 (≈ 0.963 µM) | 3.9 (≈ 15.6 µM) | 3.9 (≈ 15.6 µM) | 0.49 (≈ 1.97 µM) | 0.98 (≈ 3.93 µM) | 0.49 (≈ 1.97 µM) | – | – | – | – | – | – | – | – | –
11 | O=C(NNc1cc(F)cc(F)c1)c1ccc(F)cc1F [Compound 1i] | > 31.3 | 1.95 (≈ 6.86 µM) | 15.6 (≈ 54.9 µM) | > 31.3 | 7.8 (≈ 27.4 µM) | > 31.3 | 0.49 (≈ 1.72 µM) | – | – | – | – | – | – | – | 1.95 | 0.49
12 | O=C(NNc1cc(F)cc(F)c1)c1ccccn1 [Compound 2i] | 7.8 (≈ 31.3 µM) | 0.24 (≈ 0.963 µM) | 1.95 (≈ 7.82 µM) | 1.95 (≈ 7.82 µM) | 0.49 (≈ 1.97 µM) | 0.98 (≈ 3.93 µM) | 0.24 (≈ 0.963 µM) | – | – | – | – | – | – | – | – | –
13 | O=C(NNc1ccc(Cl)cc1)c1ccccn1 [Compound 2e] | – | – | – | – | – | – | – | 1.95 | 1.95 | 3.9 | 31.3 | 0.49 | 3.9 | 0.49 | – | –
14 | COc1cccc(NNC(=O)c2ccc(F)cn2)c1 [Compound 3c] | – | – | – | – | – | – | – | – | 0.24 | 3.9 | >31.3 | 1.95 | 3.9 | 0.24 | – | –
